Results taken from patent US12404241B2 (Celgene Corporation, priority 2018, dated 2025).
Where a name gives a salt, the structure may show the parent alone.

Molecular target: T1, AR (Homo sapiens, UniProt P10275)
T1 construct: endogenous in cells; host or cells: VCaP cells
T1 sequence (P10275 1-920): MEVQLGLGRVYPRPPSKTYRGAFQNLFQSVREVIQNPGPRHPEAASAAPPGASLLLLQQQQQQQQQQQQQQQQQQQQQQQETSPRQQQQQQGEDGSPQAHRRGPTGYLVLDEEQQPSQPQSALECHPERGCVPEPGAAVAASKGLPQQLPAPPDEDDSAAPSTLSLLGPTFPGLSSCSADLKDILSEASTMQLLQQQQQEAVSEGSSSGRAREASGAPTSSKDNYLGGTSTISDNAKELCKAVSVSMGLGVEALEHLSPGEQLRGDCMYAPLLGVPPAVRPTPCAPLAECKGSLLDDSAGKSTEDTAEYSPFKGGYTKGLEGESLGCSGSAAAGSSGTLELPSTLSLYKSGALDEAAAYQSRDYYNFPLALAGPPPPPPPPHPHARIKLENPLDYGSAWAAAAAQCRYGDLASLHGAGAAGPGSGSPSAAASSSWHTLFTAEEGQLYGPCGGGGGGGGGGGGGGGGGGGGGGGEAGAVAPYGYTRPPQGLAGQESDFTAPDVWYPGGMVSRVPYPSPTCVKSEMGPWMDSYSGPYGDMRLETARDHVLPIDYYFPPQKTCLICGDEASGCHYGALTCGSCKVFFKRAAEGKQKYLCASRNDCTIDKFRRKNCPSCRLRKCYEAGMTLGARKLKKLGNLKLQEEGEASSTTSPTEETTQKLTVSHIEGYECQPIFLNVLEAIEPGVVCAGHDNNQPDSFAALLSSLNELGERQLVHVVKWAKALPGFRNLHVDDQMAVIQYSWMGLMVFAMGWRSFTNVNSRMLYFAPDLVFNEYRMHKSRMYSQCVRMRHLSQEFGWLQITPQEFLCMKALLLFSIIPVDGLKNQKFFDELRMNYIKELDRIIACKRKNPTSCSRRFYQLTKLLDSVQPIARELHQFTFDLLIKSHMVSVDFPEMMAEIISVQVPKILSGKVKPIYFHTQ
Assay: VCAP AR Degradation Assay
Type: cell-based
Settings: for Y (AR degradation efficiency, % of DMSO control): class symbols *; for DC50: class symbols A-C, read-out: DC50
How it was run: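 VCaP cells treated 24 h at 37 °C with a 10-point 1:3 series (top 5 μM final; 0.1% DMSO control). Lysate AR measured by sandwich ELISA, normalized to DMSO as percent of control; DC50, EC50 and lowest AR level (Y) from four-parameter logistic fit.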

| Compound | Y (AR degradation efficiency, % of DMSO control) | DC50 [µM] |
| --- | --- | --- |
| CCc1cc(N2C(=S)N(c3cnc(C#N)c(C(F)(F)F)c3)C(=O)C2(C)C)ccc1OCCN1C[C@H]2CC[C@@H]1CN2CC(=O)Nc1cc(Cl)cc(NC2CCC(=O)NC2=O)c1 (stereo partly drawn) [Example 184, N-(3-chloro-5-(2,6-dioxopiperidin-3-ylamino)phenyl)-2-((1R,4R)-5-(2-(4-(3-(6-cyano-5-(trifluoromethyl)pyridin-3-yl)-5,5-dimethyl-4-oxo-2-thioxoimidazolidin-1-yl)-2-ethylphenoxy)ethyl)-2,5-diazabicyclo[2.2.2]octan-2-yl)acetamide] | ** (25%<Y<=35%) | 0.1 to 0.5 |
| C[C@@H]1CN(CCOc2ccc(N3C(=S)N(c4ccc(C#N)c(Cl)c4)C(=O)C3(C)C)cc2C2CC2)C[C@H](C)N1CC(=O)Nc1cccc(NC2CCC(=O)NC2=O)c1 (stereo partly drawn) [Example 206, 2-((2S,6R)-4-(2-(4-(3-(3-chloro-4-cyanophenyl)-5,5-dimethyl-4-oxo-2-thioxoimidazolidin-1-yl)-2-cyclopropylphenoxy)ethyl)-2,6-dimethylpiperazin-1-yl)-N-(3-(2,6-dioxopiperidin-3-ylamino)phenyl)acetamide] | * (0<Y<=25%) | < 0.1 |
| CC(C)c1cc(N2C(=S)N(c3ccc(C#N)c(C(F)(F)F)c3)C(=O)C2(C)C)cnc1OCCN1C[C@@H](C)N(CC(=O)Nc2cccc(NC3CCC(=O)NC3=O)c2)[C@@H](C)C1 (stereo partly drawn) [Example 224, 2-((2R,6S)-4-(2-(5-(3-(4-cyano-3-(trifluoromethyl)phenyl)-5,5-dimethyl-4-oxo-2-thioxoimidazolidin-1-yl)-3-isopropylpyridin-2-yloxy)ethyl)-2,6-dimethylpiperazin-1-yl)-N-(3-(2,6-dioxopiperidin-3-ylamino)phenyl)acetamide] | ** (25%<Y<=35%) | 0.1 to 0.5 |
| C[C@@H]1CN(CC(=O)Nc2cccc(NC3CCC(=O)NC3=O)c2)[C@H](C)CN1CCOc1ccc(N2C(=S)N(c3ccc(C#N)c(C(F)(F)F)c3)C(=O)C2(C)C)cc1C1CC1 (stereo partly drawn) [Example 203, 2-((2R,5R)-4-(2-(4-(3-(4-cyano-3-(trifluoromethyl)phenyl)-5,5-dimethyl-4-oxo-2-thioxoimidazolidin-1-yl)-2-cyclopropylphenoxy)ethyl)-2,5-dimethylpiperazin-1-yl)-N-(3-(2,6-dioxopiperidin-3-ylamino)phenyl)acetamide] | * (0<Y<=25%) | < 0.1 |
| C[C@@H]1CN(CCOc2ncc(N3C(=S)N(c4ccc(C#N)c(C(F)(F)F)c4)C(=O)C34CCC4)cc2C2CC2)C[C@H](C)N1CC(=O)Nc1cccc(NC2CCC(=O)NC2=O)c1 (stereo partly drawn) [Example 229, 2-((2S,6R)-4-(2-(5-(7-(4-cyano-3-(trifluoromethyl)phenyl)-8-oxo-6-thioxo-5,7-diazaspiro[3.4]octan-5-yl)-3-cyclopropylpyridin-2-yloxy)ethyl)-2,6-dimethylpiperazin-1-yl)-N-(3-(2,6-dioxopiperidin-3-ylamino)phenyl)acetamide] | * (0<Y<=25%) | < 0.1 |
| CCc1cc(N2C(=S)N(c3cnc(C#N)c(C(F)(F)F)c3)C(=O)C2(C)C)ccc1OCCN1CCN(CC(=O)Nc2cc(Cl)cc(NC3CCC(=O)NC3=O)c2)[C@@H](C)C1 (stereo partly drawn) [Example 131, N-(3-chloro-5-(2,6-dioxopiperidin-3-ylamino)phenyl)-2-((S)-4-(2-(4-(3-(6-cyano-5-(trifluoromethyl)pyridin-3-yl)-5,5-dimethyl-4-oxo-2-thioxoimidazolidin-1-yl)-2-ethylphenoxy)ethyl)-2-methylpiperazin-1-yl)acetamide] | * (0<Y<=25%) | < 0.1 |
| CCc1cc(N2C(=S)N(c3cnc(C#N)c(Cl)c3)C(=O)C2(C)C)ccc1OCCN1CCN(CC(=O)Nc2cccc(NC3CCC(=O)NC3=O)c2)[C@H](C)C1 (stereo partly drawn) [Example 167, 2-((R)-4-(2-(4-(3-(5-chloro-6-cyanopyridin-3-yl)-5,5-dimethyl-4-oxo-2-thioxoimidazolidin-1-yl)-2-ethylphenoxy)ethyl)-2-methylpiperazin-1-yl)-N-(3-(2,6-dioxopiperidin-3-ylamino)phenyl)acetamide] | * (0<Y<=25%) | < 0.1 |
| CCc1cc(N2C(=S)N(c3ccc(C#N)c(C(F)(F)F)c3)C(=O)C2(C)C)ccc1OCCN1CCN(CC(=O)Nc2cc(F)cc(NC3CCC(=O)NC3=O)c2)C(C)(C)C1 (stereo not drawn) [Example 73, 2-(4-(2-(4-(3-(4-cyano-3-(trifluoromethyl)phenyl)-5,5-dimethyl-4-oxo-2-thioxoimidazolidin-1-yl)-2-ethylphenoxy)ethyl)-2,2-dimethylpiperazin-1-yl)-N-(3-(2,6-dioxopiperidin-3-ylamino)-5-fluorophenyl)acetamide] | * (0<Y<=25%) | < 0.1 |
| CCc1cc(N2C(=S)N(c3ccc(C#N)c(C(F)(F)F)c3)C(=O)C2(C)C)ccc1OCCN1CCN(CC(=O)Nc2cccc(NC3CCC(=O)NC3=O)c2)CC1 (stereo not drawn) [Example 10, hydrochloride] | * (0<Y<=25%) | < 0.1 |
| CCc1cc(N2C(=S)N(c3cnc(C#N)c(C(F)(F)F)c3)C(=O)C2(C)C)ccc1OCCN1CCN(CC(=O)Nc2cc(F)cc(NC3CCC(=O)NC3=O)c2)[C@H](C)C1 (stereo partly drawn) [Example 75, 2-((R)-4-(2-(4-(3-(6-cyano-5-(trifluoromethyl)pyridin-3-yl)-5,5-dimethyl-4-oxo-2-thioxoimidazolidin-1-yl)-2-ethylphenoxy)ethyl)-2-methylpiperazin-1-yl)-N-(3-(2,6-dioxopiperidin-3-ylamino)-5-fluorophenyl)acetamide] | * (0<Y<=25%) | < 0.1 |
| CCc1cc(N2C(=S)N(c3ccc(C#N)c(C(F)(F)F)c3)C(=O)C2(C)C)cc(F)c1OCCN1C[C@@H](C)N(CC(=O)Nc2cccc(NC3CCC(=O)NC3=O)c2)[C@@H](C)C1 (stereo partly drawn) [Example 248, 2-((2S,6R)-4-(2-(4-(3-(4-cyano-3-(trifluoromethyl)phenyl)-5,5-dimethyl-4-oxo-2-thioxoimidazolidin-1-yl)-2-ethyl-6-fluorophenoxy)ethyl)-2,6-dimethylpiperazin-1-yl)-N-(3-(2,6-dioxopiperidin-3-ylamino)phenyl)acetamide] | * (0<Y<=25%) | < 0.1 |
| CCc1cc(N2C(=S)N(c3ccc(C#N)c(C(F)(F)F)c3)C(=O)C2(C)C)ccc1OCCN1CCN(CC(=O)Nc2cc(F)cc(NC3CCC(=O)NC3=O)c2)C2(CC2)C1 (stereo not drawn) [Example 109, 2-(7-(2-(4-(3-(4-cyano-3-(trifluoromethyl)phenyl)-5,5-dimethyl-4-oxo-2-thioxoimidazolidin-1-yl)-2-ethylphenoxy)ethyl)-4,7-diazaspiro[2.5]octan-4-yl)-N-(3-(2,6-dioxopiperidin-3-ylamino)-5-fluorophenyl)acetamide] | * (0<Y<=25%) | < 0.1 |
| CCc1cc(N2C(=S)N(c3ccc(C#N)c(C(F)(F)F)c3)C(=O)C2(C)C)ccc1OCCN1C[C@H](C)N(CC(=O)Nc2cccc(NC3CCC(=O)NC3=O)c2)C[C@H]1C (stereo partly drawn) [Example 122, 2-((2S,5R)-4-(2-(4-(3-(4-cyano-3-(trifluoromethyl)phenyl)-5,5-dimethyl-4-oxo-2-thioxoimidazolidin-1-yl)-2-ethylphenoxy)ethyl)-2,5-dimethylpiperazin-1-yl)-N-(3-(2,6-dioxopiperidin-3-ylamino)phenyl)acetamide] | ** (25%<Y<=35%) | 0.1 to 0.5 |
| CC(C)c1cc(N2C(=S)N(c3cnc(C#N)c(C(F)(F)F)c3)C(=O)C23CCC3)ccc1OCCN1C[C@@H](C)N(CC(=O)Nc2cc(C#N)cc(NC3CCC(=O)NC3=O)c2)[C@@H](C)C1 (stereo partly drawn) [Example 210, N-(3-cyano-5-(2,6-dioxopiperidin-3-ylamino)phenyl)-2-((2S,6R)-4-(2-(4-(7-(6-cyano-5-(trifluoromethyl)pyridin-3-yl)-8-oxo-6-thioxo-5,7-diazaspiro[3.4]octan-5-yl)-2-isopropylphenoxy)ethyl)-2,6-dimethylpiperazin-1-yl)acetamide] | * (0<Y<=25%) | < 0.1 |
| CCc1cc(N2C(=S)N(c3ccc(C#N)c(C(F)(F)F)c3)C(=O)C2(C)C)ccc1OCCN1CCN(CC(=O)Nc2cccc(NC3CCC(=O)NC3=O)c2Cl)CC1 (stereo not drawn) [Example 35, hydrochloride] | ** (25%<Y<=35%) | 0.1 to 0.5 |
